Assay results taken from patent publication US11013706B2, “Non-pharmaceutical bactericidal composition against Helicobacter pylori” (ECO-GEO BIO-TECHNOLOGY COMPANY LIMITED., priority 2019, dated 2021).

Columns and labels:
[1] = tested on: Helicobacter pylori strain 26695 (ATCC700392); test: Embodiment 4: antibacterial experiment against Helicobacter pylori, malate, lactate, citrate and phosphate buffer combinations with ascorbic acid (viable count); format: cell-based
Procedure: The bacteria strain used in the experiment was Helicobacter pylori strain 26695 (ATCC700392), and the bacteria were subcultured on Brucella solid medium (Brucella broth 28 g/L, Agar 15 g/L and 10% (v/v) Horse serum, pH 7.0). After the bacteria were seeded by streaking method, they were cultured in a humidified anaerobic chamber at 37° C. for 72 hours using a microaerobic bag (Genbox microaer, BioMerieux, 96125). […] Brucella broth containing 10 mg/mL of NaHCO3 was added to the Helicobacter pylori subcultured for 72 hours, bacterial concentration was adjusted to 10^7-10^8 CFU/mL as a bacterial solution, the bacterial solution was mixed with each culture solution in a 1:1 ratio, and the mixture was incubated at 37° C. in a humidified anaerobic chamber using a micro-aerobic bag (Genbox microaer, BioMerieux, 96125). […] The malate buffer combination and the lactate buffer combination were prepared by mixing malic acid and sodium malate, and lactic acid and sodium lactate, respectively, in the same way. The phosphate buffer solutions were prepared by mixing KH2PO4 and Na2HPO4 in different ratios according to their pH values, and the unmodulable portion was prepared by HCl and NaOH to reach a constant pH value. The pH of the pure medium was adjusted with HCl and NaOH. […] Finally, the viable count of each culture medium was calculated.

[2] = tested on: Helicobacter pylori strain 26695 (ATCC700392); test: Embodiment 1: antibacterial experiment against Helicobacter pylori, citrate and phosphate buffer combinations with or without ascorbic acid (viable count); format: cell-based

In the case of O=C1O[C@H]([C@@H](O)CO)C(O)=C1O [ascorbic acid, L-Ascorbic acid], the “effect of the ascorbic acid on the sterilization effect of the citrate or the malate buffer combination” value ([1]; comparing Embodiment 3 and Embodiment 4) is reported as “synergistic effect”, the “effect of the ascorbic acid added to the phosphate buffer combination or water” value ([1]; presence of bicarbonate, Embodiments 3 and 4) is reported as “neither bactericidal effect nor synergistic effect” and the “effect of the ascorbic acid on the sterilization of the citrate buffer combination” value ([2]; comparing C3 with C3V3000, and C4 with C4V3000) is reported as “synergistic effect”. For the same compound, the “effect of the ascorbic acid added to the phosphate buffer combination or water” value ([2]; presence of bicarbonate, Embodiment 1) was “neither the bactericidal effect nor the synergistic effect”.
